Reference: patent US20260216326A1, “METHODS OF TREATING INFLAMMATORY DISEASES WITH COMBINATION OF TL1A INHIBITORS AND S1PR INHIBITORS” (Prometheus Biosciences, Inc., priority 2022, published 2026)
“Also recorded” adds a separate entry of the source. Read-outs that look alike come from different tables or passages of the source.

What was measured:
human whole blood = assay: Human cytokine release assay, whole blood; format: cell-based
[1] = target: recombinant mouse S1P1 receptors (Mus musculus, UniProt O08530); details: read-out: EC50, agonist of S1P1 receptors; cited from earlier work
Chain of recombinant mouse S1P1 receptors (O08530 whole entry): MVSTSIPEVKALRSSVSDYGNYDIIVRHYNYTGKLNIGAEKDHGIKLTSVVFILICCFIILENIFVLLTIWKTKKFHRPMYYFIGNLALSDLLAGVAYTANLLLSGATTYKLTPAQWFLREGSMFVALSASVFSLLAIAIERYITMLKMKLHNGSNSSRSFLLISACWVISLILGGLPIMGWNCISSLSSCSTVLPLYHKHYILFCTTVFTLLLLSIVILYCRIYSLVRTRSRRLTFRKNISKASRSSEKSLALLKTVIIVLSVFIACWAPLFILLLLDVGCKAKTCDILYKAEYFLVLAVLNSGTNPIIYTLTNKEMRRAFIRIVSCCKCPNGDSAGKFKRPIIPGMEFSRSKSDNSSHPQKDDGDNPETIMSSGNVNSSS

S1P3 [2] = target: T1, S1P3 (Homo sapiens, UniProt Q99500); details: cited from earlier work
Target sequence in this assay (Q99500 whole entry): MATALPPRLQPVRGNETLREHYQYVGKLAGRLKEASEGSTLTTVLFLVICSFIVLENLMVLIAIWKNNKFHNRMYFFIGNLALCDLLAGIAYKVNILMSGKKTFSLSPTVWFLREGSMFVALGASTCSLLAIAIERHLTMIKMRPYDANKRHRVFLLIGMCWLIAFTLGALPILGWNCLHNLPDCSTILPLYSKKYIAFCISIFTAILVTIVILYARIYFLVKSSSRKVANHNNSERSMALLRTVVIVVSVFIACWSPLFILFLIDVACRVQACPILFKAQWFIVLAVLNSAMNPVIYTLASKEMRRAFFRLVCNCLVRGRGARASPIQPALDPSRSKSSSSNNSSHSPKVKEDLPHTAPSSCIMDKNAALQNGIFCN

human S1P5 = human S1P5 (Homo sapiens, UniProt Q9H228); details: cited from earlier work
Chain of human S1P5 (Q9H228 whole entry): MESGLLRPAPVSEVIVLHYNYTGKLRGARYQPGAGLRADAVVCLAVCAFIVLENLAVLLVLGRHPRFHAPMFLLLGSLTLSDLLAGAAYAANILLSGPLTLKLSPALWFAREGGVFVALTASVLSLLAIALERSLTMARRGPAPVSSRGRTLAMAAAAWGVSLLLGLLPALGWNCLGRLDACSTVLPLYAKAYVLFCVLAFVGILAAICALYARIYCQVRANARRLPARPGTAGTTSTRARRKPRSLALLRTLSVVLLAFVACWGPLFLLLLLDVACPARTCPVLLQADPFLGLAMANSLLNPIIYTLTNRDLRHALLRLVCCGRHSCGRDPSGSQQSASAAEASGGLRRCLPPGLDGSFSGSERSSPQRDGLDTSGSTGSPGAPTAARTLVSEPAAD

S1P4 [3] = target: T2, S1P4 (Homo sapiens, UniProt O95977); details: cited from earlier work
T2 sequence (O95977 1-384): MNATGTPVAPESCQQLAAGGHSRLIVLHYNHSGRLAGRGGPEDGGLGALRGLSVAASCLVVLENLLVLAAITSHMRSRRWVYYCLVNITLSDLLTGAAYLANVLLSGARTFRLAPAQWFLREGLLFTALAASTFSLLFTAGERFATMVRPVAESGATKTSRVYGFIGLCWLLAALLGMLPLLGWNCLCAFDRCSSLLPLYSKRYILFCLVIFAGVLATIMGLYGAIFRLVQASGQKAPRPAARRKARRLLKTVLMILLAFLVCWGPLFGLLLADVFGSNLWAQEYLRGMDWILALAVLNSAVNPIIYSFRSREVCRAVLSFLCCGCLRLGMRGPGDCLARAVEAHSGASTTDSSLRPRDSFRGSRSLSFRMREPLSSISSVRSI

[4] = target: recombinant monkey S1P1 receptors; details: read-out: EC50, agonist of S1P1 receptors; cited from earlier work
[5] = target: human Sphingosine-1-phosphate receptor 2 (S1P2 or S1PR2) (Homo sapiens, UniProt O95136); details: cited from earlier work
Chain of human Sphingosine-1-phosphate receptor 2 (S1P2 or S1PR2) (O95136 whole entry): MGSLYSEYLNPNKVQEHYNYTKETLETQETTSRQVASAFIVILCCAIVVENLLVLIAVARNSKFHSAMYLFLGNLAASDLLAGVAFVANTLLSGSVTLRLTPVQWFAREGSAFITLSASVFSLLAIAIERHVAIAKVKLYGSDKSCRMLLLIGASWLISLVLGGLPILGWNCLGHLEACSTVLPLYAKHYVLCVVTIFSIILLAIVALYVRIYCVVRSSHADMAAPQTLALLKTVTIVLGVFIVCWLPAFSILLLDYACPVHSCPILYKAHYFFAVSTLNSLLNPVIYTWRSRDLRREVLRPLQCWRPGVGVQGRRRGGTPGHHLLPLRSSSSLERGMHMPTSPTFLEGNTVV

[6] = target: recombinant dog S1P1 receptors; details: read-out: EC50, agonist of S1P1 receptors; cited from earlier work
[7] = tested on: CD20-expressing Raji cell; assay: CDC positive control with Rituxan; format: cell-based, human
Method: Test articles were evaluated for CDC activity, compared to negative control Human IgG4 isotype control, on TL1A-expressing HEK293 target cells. Rituxan (anti-CD20) was used as a positive technical control on CD20-expressing Raji cell. All test articles were used at a final top concentration of 10 μg/mL followed by a five-fold dilution series (7 points total), in addition to a no treatment control, in triplicate. Cells were incubated with test articles for 15 minutes at 37 C, then treated with human complement, at a final concentration of 25%, for 3 hours at 37 C, 5% CO2. Following incubation, cells were washed and resuspended in Propidium Iodide (P.I.) at a final concentration of 5 μg/mL prior to flow cytometry analysis. Total cells were examined by flow cytometry during sample acquisition. Data were plotted on an XY chart, graphing percentage P.I. positive cells against the log of the concentration and fit to a non-linear regression curve. Cell cytotoxicity in the presence of all test articles was not distinguishable from cell cytotoxicity in the presence of isotype control (Table 12).

S1P4 [8] = target: T2, S1P4; details: cited from earlier work; remark: listed apart in the source
S1P2 = S1P2 (Homo sapiens, UniProt O95136); details: cited from earlier work
Chain of S1P2 (O95136 whole entry, species assumed): as the sequence (O95136 whole entry) above

S1P3 [9] = target: T1, S1P3; details: cited from earlier work; remark: listed apart in the source
Target sequence in this assay (Q99500 whole entry, species assumed): as the sequence (Q99500 whole entry) above

S1P1 [10] = target: T3, S1P1 (Homo sapiens, UniProt P21453); details: read-out: ED50 value, agonistic activity on S1P1; cited from earlier work
T3 sequence (P21453 whole entry, species assumed): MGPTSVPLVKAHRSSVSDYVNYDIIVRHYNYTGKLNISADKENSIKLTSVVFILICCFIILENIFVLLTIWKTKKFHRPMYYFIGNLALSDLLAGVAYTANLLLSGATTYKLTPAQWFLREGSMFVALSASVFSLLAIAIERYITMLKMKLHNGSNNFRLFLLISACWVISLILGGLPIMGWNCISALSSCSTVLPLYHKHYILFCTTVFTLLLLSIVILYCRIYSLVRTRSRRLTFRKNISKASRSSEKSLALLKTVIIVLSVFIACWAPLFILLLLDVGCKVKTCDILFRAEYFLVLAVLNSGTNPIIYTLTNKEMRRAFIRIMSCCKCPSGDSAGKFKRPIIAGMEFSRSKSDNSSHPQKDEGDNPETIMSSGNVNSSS

S1P3 [11] = target: T1, S1P3; details: read-out: ED50 value on S1P3; cited from earlier work
Target sequence in this assay (Q99500 whole entry, species assumed): as the sequence (Q99500 whole entry) above

[12] = target: sphingosine-1-phosphate receptor 1 (S1P1) (Homo sapiens, UniProt P21453); details: binding; cited from earlier work
Chain of sphingosine-1-phosphate receptor 1 (S1P1) (P21453 whole entry, species assumed): as the sequence (P21453 whole entry, species assumed) above

S1P1 [13] = target: T3, S1P1; details: cited from earlier work
peripheral lymphocytes = details: mice, 24 h after oral dosing; cited from earlier work
S1P1 [14] = target: T3, S1P1; details: cited from earlier work; remark: listed apart in the source
S1P3 [15] = target: T1, S1P3; details: cited from earlier work; remark: listed apart in the source
Target sequence in this assay (Q99500 whole entry, species assumed): as the sequence (Q99500 whole entry) above

IL10−/− mice = assay: IL10−/− model of murine colitis; format: in vivo, mouse
Method: IL10−/− and WT mice on the C57BL/6 background are monitored for body weight every other day. IL10−/− mice begins to manifest symptoms of colitis by 4 weeks of age compared with WT mice, including diarrhea and weight loss greater than 5%. Treatment protocols are initiated when the mice are between 14-18 weeks of age.
By 14−18 weeks of age, IL10−/− mice develop sufficiently severe symptoms of disease to being testing therapeutic treatments. For four weeks, mice are treated weekly with Intraperitoneal (I.P.) anti-TL1a injection and daily with oral FTY720 (S1PR inhibitor, anti-S1PR) according to Table 61. Group 1 serves as the naïve control and Group 2 is treated with isotype and vehicle controls. Groups 3 and 4 test the high dose of either TL1a or S1PR blockade, respectively. Groups 5 and 6 test the low dose of either TL1a or S1PR blockade. Groups 7 and 8 test the high and low dose combination therapies, respectively.
(§1) At day 28 after initiation of treatment, mice are anaesthetized and bled by cardiac puncture. Blood is kept on ice for 30 minutes and then spun down to separate the serum, which is stored at −80 C for cytokine measurement by MSD. After the terminal bleed, mice are euthanized by CO2 overdose per IACUC guidelines. Colons are harvested for each mouse and measured for length and weight. 1 cm of the middle colon is collected into RNAlater, and kept at room temperature for 2 hours prior to freezing at −80 C. The colonic tissue preserved in RNAlater is processed for mRNA and subjected to bulk RNA sequencing and standard differential gene expression analysis. The remainder of the proximal and distal colon is preserved in 10% NBF at room temperature for 48 hours prior to moving to 70% ethanol. These preserved colonic tissues are sectioned and stained by H&E prior to analysis by a veterinary pathologist for clinical signs of colitis.

[16] = tested on: Rag2−/− mice receiving CD4+CD45RB+ T cells; assay: T cell transfer model of murine colitis; format: in vivo, mouse
Excerpt: The murine T cell transfer model of colitis is used to test the synergistic effect of blocking TL1A and S1P on the development of colitis using a mouse-specific TL1A antibody (anti-TL1A) and S1PR functional antagonist (FTY720). To initiate colitis, CD4+CD45RB+ T cells from the spleens of C57BL/6 mice are sorted to >95% purity and transferred by I.V. injection to Rag2−/− mice lacking mature B and T cells (0.5e6 cells/mouse), which are then randomized by weight on day 0. Mice are weighed and monitored for signs of disease every other day for 7 weeks.
One day prior to the initiation of disease (day-1) and weekly throughout the course of the experiment, mice are treated with a single I.P. injection of anti-TL1A in 0.2 ml total volume according to Table 64. In addition, FTY720 or the appropriate vehicle control is orally dosed daily according to Table 64. Group 1 serve as the naïve control and Group 2 is treated with isotype control antibodies. Groups 3 and 4 test the high dose of either anti-TL1A or FTY720, respectively. Groups 5 and 6 test the low dose of either anti-TL1A or FTY720. Groups 7 and 8 test the high and low dose combination therapies, respectively.
as §1, with “49” for “28”, “disease induction with CD4+CD45RB+ T cell transfer,” for “initiation of treatment,”, “and” for “and standard”, “These preserved colonic tissues are sectioned and stained by H&E prior to analysis by a veterinary pathologist for clinical signs of colitis.” left out

## Staphylococcal enterotoxin B [SEB]
Human whole blood
  cytokine release (IL-2, IL-6, IL-10, TNF, IFN-γ) in whole blood: induced IL-2, IL-6, IL-10, TNF, and IFN-γ release

## O=C(O)C[C@H]1CCc2c1[nH]c1ccc(OCc3ccc(C4CCCC4)c(C(F)(F)F)c3)cc21 [etrasimod, (R)-2-(7-(4-cyclopentyl-3-(trifluoromethyl)benzyloxy)-1,2,3,4-tetrahydrocyclopenta[b]indol-3-yl) acetic acid]
[1]
  EC50: 3.65 nM
S1P3 [2]
  agonist or antagonist activity: neither agonist nor antagonist activity was observed
Human S1P5
  relative efficacy, % of S1P response: 73%
S1P4 [3]
  relative efficacy, % of S1P response: 63%
[4]
  EC50: 8.7 nM
[5]
  agonist or antagonist activity: neither agonist nor antagonist activity was observed
[6]
  EC50: 4.19 nM

## Rituxan: anti-CD20 antibody, positive control in the CDC assay
[7]
  CDC bioactivity / complement-mediated lysis: CDC bioactivity was observed; also recorded: expected increase in complement-mediated lysis

## CCCCCCCOc1ccc(CCC(N)(CO)CO)cc1C(F)(F)F [amiselimod, 2-amino-2-{2-[4-(heptyloxy)-3-(trifluoromethyl)phenyl]ethyl}propan-1,3-diol]
S1P4 [8]
  agonist activity for S1P4: minimal agonist activity
S1P2
  agonist activity for S1P2: no distinct agonist activity
S1P3 [9]
  agonist activity for S1P3: no distinct agonist activity

## NC(CO)(CO)CCc1ccc(Sc2cccc(OCc3ccccc3)c2)cc1Cl [mocravimod, 2-amino-2-{2-[4-(3-benzyloxyphenylthio)-2-chlorophenyl]ethyl}-1,3-propanediol]
S1P1 [10]
  EC50: 0.84 nM
S1P3 [11]
  EC50: > 1000 nM
[12]
  selectivity for S1P1 over S1P2 and S1P5: 100 fold

## CCCc1ccc(COc2ccc3c(c2)CCC(CN2CC(C(=O)O)C2)=C3C)c(OC)c1 [ceralifimod, 1-({6-[(2-methoxy-4-propylbenzyl)oxy]-1-methyl-3,4-dihydronaphthalen-2-yl}methyl) azetidine-3-carboxylic acid]
S1P1 [13]
  selectivity for S1P1 over S1P3: > 30 000 fold
Peripheral lymphocytes
  ED50, peripheral lymphocyte lowering (PLL) test: 0.029 mg/kg

## CCC/N=C1\S/C(=C\c2ccc(OC[C@H](O)CO)c(Cl)c2)C(=O)N1c1ccccc1C [ponesimod, (2Z,5Z)-5-[3-chloro-4-[(2R)-2,3-dihydroxypropoxy]benzylidene]-3-(2-methylphenyl)-2-(propylimino)-1,3-thiazolidin-4-one]
S1P1 [14]; S1P1 versus S1P3
  S1P1 selectivity, higher compared with the natural ligand: approximately 650 fold
S1P1 [14]; compared with the natural ligand
  potency for S1P1, higher compared with the natural ligand: 4.4
S1P1 [14]; read-out: half maximal effective concentration (EC50), S1P1 activation
  EC50: 5.7 nM
S1P3 [15]
  potency for S1P3, lower compared with the natural ligand: 150 fold

## CCCCCCCCc1ccc(CCC(N)(CO)CO)cc1 [FTY720]
IL10−/− mice; colonic tissue
  disease per histopathology: reduces disease per histopathology in a dose dependent manner
IL10−/− mice; mouse, in vivo
  serum inflammatory cytokines (MSD): Reduced levels of inflammatory cytokines
IL10−/− mice; single agents, Groups 3-6
  body weight loss: alleviates body weight loss in a dose-dependent manner
[16]; colonic tissue
  disease per histopathology: reduces disease per histopathology in a dose dependent manner
[16]; mouse, in vivo
  serum inflammatory cytokines (MSD): Reduced levels of inflammatory cytokines
[16]; single agents, Groups 3-6
  body weight loss: alleviates body weight loss in a dose-dependent manner
